Results taken from patent US6528516B1, “Methods for reducing intraocular pressure using A3 adenosine receptor antagonists” (Trustees of the University of Pennsylvania, The Center for …, priority 1998, dated 2003).
Entries after “also recorded” stand apart in the source; their conditions may differ. Where two headings read alike, the source gives them in different places.

What was measured:
[1] = target: human A2 receptors; details: read-out: Ki for binding to human A2 receptors; cited from earlier work
[2] = system: HCE (human ciliary epithelial) cell line, NPE cells; experiment: Cell volume (shrinkage) of NPE cells in isosmotic solution, Coulter Counter, 5 μM gramicidin; assay type: cell-based; details: 300 nM MRS-1097, 100 nM MRS-1191, 100 nM MRS-1523, 10 μM adenosine
Procedure: A 0.5-ml aliquot of the HCE cell suspension in DMEM was added to 20 ml of each test solution, which contained (in mM): 110.0 NaCl, 15.0HEPES [4-(2-hydroxyethyl)-1-piperazineethanesulfonic acid], 2.5 CaCl2, 1.2 MgCl2, 4.7 KCl, 1.2 KH2PO4, 30.0 NaHCO3, and 10.0 glucose, at a pH of 7.4 and osmolality of 298-305 mOsm. Parallel aliquots of cells were studied on the same day. One aliquot usually served as a control, and the others were exposed to different experimental conditions at the time of suspension. The same amount of solvent vehicle (dimethylformamide, DMSO or ethanol) was always added to the control and experimental aliquots. The sequence of studying the suspensions was varied to preclude systematic time-dependent artifacts (Civan et al., Exp. Eye Res. 54:181-191, 1992).
Cell volumes of isosmotic suspensions were measured with a Coulter Counter (model ZBI-Channelyzer II), using a 100-μm aperture (Civan et al., supra., 1994). As previously described (Wax et al., supra., 1993), the cell volume (vC) of the suspension was taken as the peak of the distribution function. Cell shrinkage was fit as a function of time (t) to a monoexponential function:
vC=v∞+(v0−v∞)−[e^−(t−t^0^)/τ] {1}
where v∞ is the steady-state cell volume, v0 is the cell volume at the first point (t0) of the time course to be fit, and τ is the time constant of the shrinkage. For purposes of data reduction, the data were normalized to the first time point, taken to be 100% isotonic volume. Fits were obtained by nonlinear least-squares regression analysis, permitting both v∞and τ to be variables.
In order to differentiate among these receptors, the experiments were repeated in the present study using a series of agonists and antagonists selective for these receptors. As we wished to identify the effects of these receptors specifically on Cl^− channels, 5 μM gramicidin D was included in all solutions to eliminate any potential contribution from K^+ channels. This ionophore readily partitions into plasma membranes to form a cation-selective pore, and is widely used for studying volume regulation (Hoffmann et al., in Interaction of Cell Volume and Cell Function, Lang et al., eds., Springer, Heidelberg, Germany, pp. 188-248, (ACEP Series 14), 1993)). Under these conditions, release of cell Cl^− becomes the rate-limiting factor in both hypo-(Civan et al., Exp. Eye Res. 54:181-191, 1992) and isoosmotic cell shrinkage (Carre et al., supra., 1997).

[3] = target: T1, human A3 receptor (Homo sapiens, UniProt P0DMS8); details: read-out: Ki for binding to human A3 receptors; cited from earlier work
T1 sequence (P0DMS8 1-318): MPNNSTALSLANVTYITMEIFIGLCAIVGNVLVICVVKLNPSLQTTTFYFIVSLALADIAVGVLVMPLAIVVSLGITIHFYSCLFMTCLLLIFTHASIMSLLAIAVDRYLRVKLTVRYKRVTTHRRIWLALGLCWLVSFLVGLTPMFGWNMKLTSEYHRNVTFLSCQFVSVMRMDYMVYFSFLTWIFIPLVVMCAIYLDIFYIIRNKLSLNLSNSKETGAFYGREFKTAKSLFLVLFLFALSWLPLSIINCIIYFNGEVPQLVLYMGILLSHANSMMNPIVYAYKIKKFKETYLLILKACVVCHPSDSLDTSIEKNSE

[4] = target: T1, human A3 receptor; experiment: Radioligand binding, [125I]AB-MECA, HEK-293 cell membranes; parameters: host or cells: HEK-293; details: read-out: Ki(hA3)
Procedure: Natl. Acad. Sci. […] Natl. Acad. Sci. U.S.A. 89:7432-7436, 1992) was performed as described at 4° C. (Olah et al., Mol. Pharmacol. 45:978-982, 1994). The assay medium consisted of a buffer containing 10 mM Mg^2+, 50 mM Tris, 3 units/mL adenosine deaminase, and 1 mM EDTA, at pH 8.0 (4° C.). […] Incubations were terminated by rapid filtration over Whatman GF/B filters, using a Brandell cell harvester (Brandell, Gaithersburg, MD). The tubes were rinsed three times with 3 mL buffer each. At least five different concentrations of competitor, spanning 3 orders of magnitude adjusted appropriately for the IC50 of each compound, were used. IC50 values, calculated with the nonlinear regression method implemented in the InPlot program (Graph-PAD, San Diego, Calif.), were converted to apparent Ki values using the Cheng-Prusoff equation (Cheng et al., Biochem.

[5] = target: T1, human A3 receptor; experiment: Adenylate cyclase assay, CHO cell membranes, forskolin stimulated; assay type: biochemical
[6] = Water solubility; assay type: physicochemical; details: room temperature
Procedure: 100 μL of de-ionized water was saturated with 5 mg 11 with heating. After cooling to room temperature and the disappearance of turbidity, 50 μL of the clear supernatant was withdrawn and lyophilized to give 1.1 mg of 11.

[7] = target: T2, A1 receptors (Rattus norvegicus, UniProt P25099); experiment: Radioligand binding, [3H]R-PIA, rat cerebral cortex membranes
T2 construct: A1 receptors from rat cerebral cortex membranes; from tissue; host or cells: rat cerebral cortex membranes
T2 sequence (P25099 1-326): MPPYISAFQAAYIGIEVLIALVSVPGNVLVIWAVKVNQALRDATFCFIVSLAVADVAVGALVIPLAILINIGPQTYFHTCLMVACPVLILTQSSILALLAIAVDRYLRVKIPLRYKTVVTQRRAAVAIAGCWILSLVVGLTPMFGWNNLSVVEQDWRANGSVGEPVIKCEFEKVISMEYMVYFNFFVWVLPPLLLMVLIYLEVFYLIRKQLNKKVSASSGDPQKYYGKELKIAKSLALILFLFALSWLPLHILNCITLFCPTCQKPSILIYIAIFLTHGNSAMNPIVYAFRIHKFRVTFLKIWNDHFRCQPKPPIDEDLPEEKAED
Procedure: Radioligand binding studies. Binding of [^3H]R-N^6-phenylisopropyladenosine ([^3H]R-PIA) to A1 receptors from rat cerebral cortex membranes and of [^3H]-2-[4-[(2-carboxyethyl)phenyl]ethylamino]-5′-N-ethylcarbamoyladenosine ([^3H]CGS 21680) to A2A receptors from rat striatal membranes was performed as described previously (Schwabe et al., Naunyn Schmiedeberg Arch. Pharmacol. 313:179-187, 1980; Jarvis et al., J. Pharmacol. Exp. Ther. 251:888-893, 1989) Adenosine deaminase (3 units/mL) was present during the preparation of the brain membranes, in a pre-incubation of 30 min at 30° C., and during the incubation with the radioligands. Nonspecific binding was determined in the presence of 10 μM (A1 receptors) or 20 μM (A2A receptors)2-chloroadenosine.
All non-radioactive compounds were initially dissolved in DMSO, and diluted with buffer to the final concentration, where the amount of DMSO never exceeded 1%. Incubations were terminated by rapid filtration over Whatman GF/B filters, using a Brandell cell harvester (Brandell, Gaithersburg, MD). The tubes were rinsed three times with 3 mL buffer each.
At least five different concentrations of competitor, spanning 3 orders of magnitude adjusted appropriately for the IC50 of each compound, were used.

[8] = system: HCE (human ciliary epithelial) cell line, NPE cells; details: read-out: EC50 for isoosmotic shrinkage of cultured human NPE cells; cited from earlier work
[9] = system: bovine PE cells, Cl− currents; experiment: Ruptured-patch whole-cell recording of PE cells; assay type: cell-based
Source text: Harvested cultured PE cells were resuspended and permitted to settle and attach to glass coverslips, which were then transferred to a perfusion chamber (Carré et al., supra., 1997). Solutions were designed to isolate any Cl^- current activated by ATP. […] (Am. J. Physiol., 261:[…]-[…], 1991), as previously described (Carré et al., supra., 1997). Cells were patched while still round, usually one day after dissociation. […] Data were acquired at 1 kHz using Axopatch-1B electronics and associated headstage (Axon Instruments, Foster City, Calif.) and filtered at 500 Hz with a Bessel filter. The micropipettes were double-pulled from Corning No. 7052 glass, coated with Sylgard and fire polished. The membrane potential was held without series-resistance compensation at 0 mV and stepped to voltages over the range from -100 to +100 mV in 20 mV increments for 200 msec periods. The mean current measured between 150-200 msec was used to obtain the patch-clamp data used here. The data presented in FIG. 2 was obtained at -60 mV [the approximate membrane potential (Green et al., Invest. Ophthalmol. Vis. Sci., 26:371-381, 1985)] to facilitate comparison with the volumetric data.

[10] = system: bovine pigmented ciliary epithelial (PE) cells; experiment: Cell volume (shrinkage) of PE cells in isoosmotic suspension, Coulter Counter; assay type: cell-based

In the case of `CCCOC(=O)c1c(-c2ccccc2)nc(CC)c(C(=O)SCC)c1CCC` [MRS-1523], the Ki [1] is given as 2.05 µM, the “effect of A3 antagonist on adenosine-stimulated isotonic shrinkage” value [2] is given as “prevented the characteristic shrinkage” and the “effect of A3 antagonist on adenosine-stimulated isotonic shrinkage” value ([2]; listed as MRS 1523) is given as “eliminated the actions of adenosine; also recorded: blocked the shrinkage”. For the same compound, the Ki [3] was 0.019 µM.
In the case of `CCOC(=O)c1c(CC)c(C(=O)SCC)c(CC)[n+](C)c1-c1ccccc1.[I-]` [Compound 11, 1-Methyl-2,4-Diethyl-3-(ethylsulfanylcarbonyl)-5-ethyloxycarbonyl-6-phenylpyridinium Iodide], the Ki [4] is reported as 0.219 µM, the “KB relative to the Ki value in binding to human A3 receptors” value [5] is reported as “approximately 1.8 times” and the “shift of the IB-MECA concentration response curve to the right” value ([5]; 10 μM of 11) is reported as 26 fold. The Kb ([5]; read-out: KB value (Schild analysis)) was 0.399 µM, the solubility ([6]; de-ionized water, water, thermodynamic from solid) was 42.8 mM and the water solubility ([6]; listed as MRS 1649) was 43 mM.
With `CCOC(=O)C1=C(C2CCCC2)N(C)C(CC)=C(C(=O)SCC)C1CC` (stereo not shown) [Compound 25, 1-Methyl-2,4-diethyl-3-(ethylsulfanylcarbonyl)-5-ethyloxycarbonyl-6-cyclopentyl-1,4-dihydropyridine] the Ki [4] was 6.4 ± 0.78 µM and the “displacement at rat A1 receptors” value ([7]; at 100 μM) was 34 ±1%.
In the case of `Nc1ncnc2c1ncn2[C@@H]1O[C@H](CO)[C@@H](O)[C@H]1O` [adenosine], the EC50 [8] is listed as 3 to 10 µM.
In the case of `CCOC(=O)c1c(CC)c(C(=O)SCC)c(CC)[n+](C)c1C1CCCC1` [Compound 23, 1-Methyl-2,4-diethyl-3-(ethylsulfanylcarbonyl)-5-ethyloxycarbonyl-6-cyclopentylpyridinium Iodide], the Ki [4] is reported as 0.695 µM and the Ki [7] is reported as 11.5 µM.
In the case of `Nc1ncnc2c1ncn2[C@@H]1O[C@H](COP(=O)(O)OP(=O)(O)OP(=O)(O)O)[C@@H](O)[C@H]1O` [ATP], the “effect of ATP on whole-cell current” value ([9]; 1 mM ATP, holding potential −60 mV, cultured bovine PE cell) is reported as “reversible and reproducible increases in inward current”, the “trials with current activated by ATP” value ([9]; cultured PE cells) is reported as 10/17 and the “trials with current activated by ATP” value ([9]; fresh bovine PE cells) is reported as 3/9. The “steady-state cell volume (v∞)” value ([10]; 3 μM ATP alone, FIG. 8B) was 98.0±0.4%, the “time constant of the shrinkage (τ)” value ([10]; 3 μM ATP alone, FIG. 8B) was 10.8 ± 4.9 min and the “steady-state cell volume (v∞)” value ([10]; 10 μM ATP alone, FIG. 8A) was 94.3±0.3%. The “time constant of the shrinkage (τ)” value ([10]; 10 μM ATP alone, FIG. 8A) was 2.8 ± 0.7 min, the “steady-state cell volume (v∞)” value ([10]; 10 μM ATP alone, FIG. 8B) was 97.2±0.3% and the “time constant of the shrinkage (τ)” value ([10]; 10 μM ATP alone, FIG. 8B) was 1.6 ± 1.0 min. The “steady-state cell volume (v∞)” value ([10]; 10 μM ATP alone, FIG. 10A) was 97.2±0.3%, the “time constant of the shrinkage (τ)” value ([10]; 10 μM ATP alone, FIG. 10A) was 1.6 ± 1.0 min and the “steady-state cell volume (v∞)” value ([10]; 100 μM ATP alone, FIG. 8A) was 94.3±0.3%. The “time constant of the shrinkage (τ)” value ([10]; 100 μM ATP alone, FIG. 8A) was 2.8 ± 0.7 min, the “steady-state cell volume (v∞)” value ([10]; 100 μM ATP alone, FIG. 13A) was 94.9±1.0% and the “time constant of the shrinkage (τ)” value ([10]; 100 μM ATP alone, FIG. 13A) was 45.2 ± 14.0 min. The “steady-state cell volume (v∞)” value ([10]; 100 μM ATP alone, FIG. 13B) was 87.5±1.8%, the “time constant of the shrinkage (τ)” value ([10]; 100 μM ATP alone, FIG. 13B) was 45.2 ± 14.0 min and the “steady-state cell volume (v∞)” value ([10]; 100 μM ATP alone, FIG. 13C) was 93.9±1.7%. For the same compound, the “time constant of the shrinkage (τ)” value ([10]; 100 μM ATP alone, FIG. 13C) was 34.8 ± 13.8 min, the “steady-state cell volume (v∞)” value ([10]; 100 μM ATP alone, FIG. 14B) was 96.8±0.5% and the “time constant of the shrinkage (τ)” value ([10]; 100 μM ATP alone, FIG. 14B) was 8.3 ± 3.7 min. For the same compound, the “steady-state cell volume (v∞)” value ([10]; 10 mM ATP alone, FIG. 10A) was 97.7±0.2%, the “time constant of the shrinkage (τ)” value ([10]; 10 mM ATP alone, FIG. 10A) was 2.2 ± 0.8 min and the “share of volumetric studies in which ATP alone produced shrinkage” value ([10]; ATP alone) was “approximately 15%”. For the same compound, the EC50 ([10]; in the presence of tamoxifen, read-out: ATP concentration eliciting approximately half-maximal response) was roughly 3 µM.
In the case of `O=C(O)c1cc([N+](=O)[O-])ccc1NCCCc1ccccc1` [NPPB, 5-nitro-2-(3-phenylpropylamino)-benzoate], the “reduction of the ATP-enhanced currents” value ([9]; 100 μM NPPB, −60 mV) is reported as 56±11%, the “effect of NPPB on ATP-stimulated current” value ([9]; FIG. 9B) is reported as “partially inhibited” and the “effect of Cl− channel blocker on ATP, tamoxifen-activated shrinkage” value ([10]; DIDS 500 μM, NPPB 100 μM) is reported as “inhibited the volume reduction; also recorded: abolished the synergistic shrinkage”.
